Source: US20250255850A1, “PHARMACEUTICAL COMPOSITIONS FOR TREATING NEUROLOGICAL CONDITIONS” (YISSUM RESEARCH DEVELOPMENT COMPANY OF THE HEBREW …, priority 2021, published 2025)
Values after ≈ are worked out from the molar mass of the structure shown.

Assays:
SH-SY5Y cells = assay: Confocal immunofluorescence of synaptophysin and 3-nitrotyrosine; type: cell-based, human; conditions: pharmacological inhibition (7-NI) or knockdown of nNOS
Procedure: FIGS. 18A-C show immunofluorescence of synaptophysin and 3-nitrotyrosine in SH-SY5Y cells with inhibited nNOS activity. Cells (with or without treatment) were postfixed in 4% paraformaldehyde and then incubated with the primary rabbit monoclonal Syp (red), and either primary mouse monoclonal NeuN (green), or primary mouse monoclonal 3-Ntyr (green) antibodies, in another group of cells. Cells were incubated with their respective secondary antibodies, such as anti-mouse Alexa fluor488, or anti-rabbit Alexa fluor594, and then mounted with DAPI (Blue) in both groups of cells. The images were acquired using a confocal microscope. Groups of cells: SH-SY5Y, SH-SY5Y+7-NI, and SH-SY5Y+si-nNOS. Each group consisted of three independent sets of experiments and was run in triplicates. The initial cell seed number was ˜10^6/cm^2. FIG. 18A presents representative images of Syp and 3-Ntyr immunofluorescence. FIGS. 18B-C are bar graphs showing the relative fluorescent intensity of Syp (FIG. 18B) and N-Tyr (FIG. 18C) immunofluorescence in the 3 groups of cells. The data are presented as mean±SEM. One-way ANOVA followed by Fisher's LSD multiple comparison post hoc test was conducted. *P<0.05, **P<0.01, ***P<0.001. The scale bar is 100 μm. […]

[1] = Solubility of 7-NI in PBS; type: physicochemical; conditions: phosphate buffer (PBS), aqueous buffer; 10 mM phosphate buffer pH 7.2
SHANK3 mutant mice = assay: Three-chamber sociability test, SHANK3 mutant mice; type: in vivo, mouse
Procedure: Three-chambered sociability test (see, FIG. 4B): Sociability and preference for social novelty and social recognition were tested in a three-chambered apparatus. The subjected mouse was first placed in the central, neutral chamber and allowed to explore for 10 minutes with all the doors closed. Next, doors were opened and the mouse was allowed to freely explore the other two empty chambers (1 and 2) for an additional 10 minutes. Lack of side preference was confirmed during this habituation.
Two cylindrical wire cages were placed, one in chamber 1 and the other in chamber 2. For the sociability test, the test animal was introduced to the middle chamber and allowed to adjust for 5 minutes. Then, an unfamiliar mouse was introduced into a wire cage in one of the side-chambers, and the other side-chamber remained empty. The time spent by the test mouse exploring the wire cage with an unfamiliar mouse inside was recorded for 5 minutes.
Next, to examine social memory, novel mice is introduced to the empty cage and the tested mice is examined whether they are interested in the novel mice compared to the familiar.
A dose dependent study was conducted to determine the optimal dose that may produce the greatest effect on mice behavior. The SHANK3 mutant mice (n=5 for each group) were treated with the 7-NI (i.p) at doses of 0, 20, 50, and 80 mg/kg. This was followed by a set of behavioral tests to assess the proper dose of 7-NI that can reverse the autistic phenotypes observed in this model.
A three-chamber sociability test was conducted to evaluate the interest of mice in engaging in social interaction with a stranger mouse, as described hereinabove and shown in FIG. 4B. […] Comparing to the 50 mg/kg, although statistically the difference is not significant, the 80 mg/kg-treated group spent more time interacting with the stranger mouse.
A 100 μL injection of the poly(sebacic acid-ricinoleic acid) (PSARA) gel formulation with 7NI was used to evaluate its effect in reversing ASD-like behaviors in SHANK3 mice. […]

[2] = even in very high doses; Biopharm. Drug Dispos. 2000, 21, 221-228; cited from earlier work
3-nitrotyrosine = assay: Western blot of 3-nitrotyrosine in cortical tissue, CNTNAP2(-/-) mutant group (M2); type: in vivo, mouse; conditions: CNTNAP2(-/-) mutant mice treated with 7-NI (M2+7-NI) vs M2
Procedure: Behavioral testing started after 2 hours of treatment.
To further corroborate these findings, the expression of 3-nitrotyrosine in cortical tissue of the wild type (WT), compared with the SHANK3 mutant group (M1), and SHANK3 group treated with 7-NI (M1+7-NI), and in cortical tissue of the wild type (WT), compared with the CNTNAP2^(−/−) mutant group (M2), and the CNTNAP2^(−/−) mutant group treated with 7-NI (M2+7—NI) was tested, and the obtained data is presented in FIGS. 3C-D (for M1) and in FIGS. 3E-F (for M2).

O=[N+]([O-])c1cccc2cn[nH]c12 [7-NI, 7-nitroindazole]
intensity of 3-Ntyr immunofluorescence (SH-SY5Y cells): significantly decreased the intensity | intensity of Syp immunofluorescence (SH-SY5Y cells): significantly decreased the intensity | solubility [1]: 140 µg/mL (≈ 858 µM) | time interacting with the stranger mouse (first session) (SHANK3 mutant mice; 7-NI 80 mg/kg compared to 20 mg/kg): spent significantly more time interacting with the stranger mouse | time interacting with the novel mouse (S2) (second session) (SHANK3 mutant mice; 7-NI 80 mg/kg compared to lower doses): spent more time interacting with the novel mouse (S2) | dose yielding the greatest reversal of the autistic phenotypes (SHANK3 mutant mice; doses 0, 20, 50, 80 mg/kg i.p.): 80 mg/kg | half-life [2]: ≤ 2 h | expression of 3-Ntyr in cortical tissue (3-nitrotyrosine): reduced the expression of 3-Ntyr
